Test results reported in ChEMBL document CHEMBL1141884 (Bioorg Med Chem Lett, 2005).

Assays:
Cholinesterase = Cholinesterase (Homo sapiens, UniProt P06276)
Description: Inhibitory concentration against Butyrylcholinesterase activity

Acetylcholinesterase [1] = molecular target: T1, Acetylcholinesterase (Homo sapiens, UniProt P22303); assay: Binding affinity for Acetylcholinesterase
Acetylcholinesterase [2] = molecular target: T1, Acetylcholinesterase; assay: Inhibitory concentration against Acetylcholinesterase activity
[3] = substrate: COc1ccc(-c2cc3c(c(=O)o2)C[C@@]2(O)[C@@]4(C)CCC(=O)OC(C)(C)[C@@]4(O)CC[C@@]2(C)O3)cc1; assay: Michaelis-Menten constant for affinity against Acetylcholinesterase

Chain of Cholinesterase (P06276 whole entry): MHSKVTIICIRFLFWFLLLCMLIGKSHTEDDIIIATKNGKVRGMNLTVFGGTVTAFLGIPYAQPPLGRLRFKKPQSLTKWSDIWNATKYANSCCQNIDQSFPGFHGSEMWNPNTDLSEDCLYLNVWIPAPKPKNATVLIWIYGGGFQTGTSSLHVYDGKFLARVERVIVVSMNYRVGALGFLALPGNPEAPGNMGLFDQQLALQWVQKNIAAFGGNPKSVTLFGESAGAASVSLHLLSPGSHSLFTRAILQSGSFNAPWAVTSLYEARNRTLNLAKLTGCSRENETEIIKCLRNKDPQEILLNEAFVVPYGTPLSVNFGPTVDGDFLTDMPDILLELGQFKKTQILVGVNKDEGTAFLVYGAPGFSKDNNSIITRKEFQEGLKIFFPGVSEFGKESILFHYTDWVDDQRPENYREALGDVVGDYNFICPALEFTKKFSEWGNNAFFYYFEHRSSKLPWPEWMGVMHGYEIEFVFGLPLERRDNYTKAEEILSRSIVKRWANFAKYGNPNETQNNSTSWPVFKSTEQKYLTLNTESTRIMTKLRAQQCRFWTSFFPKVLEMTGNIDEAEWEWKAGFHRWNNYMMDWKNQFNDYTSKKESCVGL

| Molecule | IC50 (Cholinesterase) | Ki (Acetylcholinesterase [1]) | IC50 (Acetylcholinesterase [2]) | Km [3] |
| --- | --- | --- | --- | --- |
| COc1ccc(-c2cc3c(c(=O)o2)C[C@@]2(O)[C@@]4(C)CCC(=O)OC(C)(C)[C@@]4(O)CC[C@@]2(C)O3)cc1 | > 500000 nM | 2300 nM |  |  |
| COc1ccc(-c2cc3c(c(=O)o2)C[C@@]2(O)[C@@]4(C)CCC(=O)C(C)(C)[C@@]4(O)CC[C@@]2(C)O3)cc1 | > 200000 nM |  | 60 nM |  |
| COC1=CC(=O)[C@]2(C)[C@]3(O)Cc4c(cc(-c5cc(OC)c(OC)c(OC)c5)oc4=O)O[C@]3(C)CC[C@]2(O)C1(C)C | > 200000 nM |  | 420 nM |  |
| COc1ccc(-c2cc3c(c(=O)o2)C[C@@]2(O)[C@@]4(C)C(=O)[C@@]5(OC)C(=O)O[C@]4(CC[C@@]2(C)O3)C5(C)C)cc1 [TERREULACTONE A] | > 200000 nM |  | 230 nM |  |
| COc1ccc(-c2cc3c(c(=O)o2)C[C@@]2(O)[C@@]4(C)C=CC(=O)C(C)(C)[C@@]4(O)CC[C@@]2(C)O3)cc1 | > 200000 nM |  | 90 nM |  |
| Acetylcholinesterase (Homo sapiens), P22303 (protein) MRPPQCLLHTPSLASPLLLLLLWLLGGGVGAEGREDAELLVTVRGGRLRGIRLKTPGGPVSAFLGIPFAEPPMGPRRFLPPEPKQPWSGVVDATTFQSVCYQYVDTLYPGFEGTEMWNPNRELSEDCLYLNVWTPYPRPTSPTPVLVWIYGGGFYSGASSLDVYDGRFLVQAERTVLVSMNYRVGAFGFLALPGSREAPGNVGLLDQRLALQWVQENVAAFGGDPTSVTLFGESAGAASVGMHLLSPPSRGLFHRAVLQSGAPNGPWATVGMGEARRRATQLAHLVGCPPGGTGGNDTELVACLRTRPAQVLVNHEWHVLPQESVFRFSFVPVVDGDFLSDTPEALINAGDFHGLQVLVGVVKDEGSYFLVYGAPGFSKDNESLISRAEFLAGVRVGVPQVSDLAAEAVVLHYTDWLHPEDPARLREALSDVVGDHNVVCPVAQLAGRLAAQGARVYAYVFEHRASTLSWPLWMGVPHGYEIEFIFGIPLDPSRNYTAEEKIFAQRLMRYWANFARTGDPNEPRDPKAPQWPPYTAGAQQYVSLDLRPLEVRRGLRAQACAFWNRFLPKLLSATDTLDEAERQWKAEFHRWSSYMVHWKNQFDHYSKQDRCSDL |  |  |  | 20 µM |
